Legend:
Calf DNA polymerase α = target: T1, Calf DNA polymerase α (Bos taurus, UniProt A0AAA9TD94); assay: DNA polymerase activity assay, calf pol α; type: biochemical; details: for Inhibitory effect on calf pol α activity: 50 μM of each compound, Figure 2
T1 construct: made in house
T1 sequence (A0AAA9TD94 1-1441): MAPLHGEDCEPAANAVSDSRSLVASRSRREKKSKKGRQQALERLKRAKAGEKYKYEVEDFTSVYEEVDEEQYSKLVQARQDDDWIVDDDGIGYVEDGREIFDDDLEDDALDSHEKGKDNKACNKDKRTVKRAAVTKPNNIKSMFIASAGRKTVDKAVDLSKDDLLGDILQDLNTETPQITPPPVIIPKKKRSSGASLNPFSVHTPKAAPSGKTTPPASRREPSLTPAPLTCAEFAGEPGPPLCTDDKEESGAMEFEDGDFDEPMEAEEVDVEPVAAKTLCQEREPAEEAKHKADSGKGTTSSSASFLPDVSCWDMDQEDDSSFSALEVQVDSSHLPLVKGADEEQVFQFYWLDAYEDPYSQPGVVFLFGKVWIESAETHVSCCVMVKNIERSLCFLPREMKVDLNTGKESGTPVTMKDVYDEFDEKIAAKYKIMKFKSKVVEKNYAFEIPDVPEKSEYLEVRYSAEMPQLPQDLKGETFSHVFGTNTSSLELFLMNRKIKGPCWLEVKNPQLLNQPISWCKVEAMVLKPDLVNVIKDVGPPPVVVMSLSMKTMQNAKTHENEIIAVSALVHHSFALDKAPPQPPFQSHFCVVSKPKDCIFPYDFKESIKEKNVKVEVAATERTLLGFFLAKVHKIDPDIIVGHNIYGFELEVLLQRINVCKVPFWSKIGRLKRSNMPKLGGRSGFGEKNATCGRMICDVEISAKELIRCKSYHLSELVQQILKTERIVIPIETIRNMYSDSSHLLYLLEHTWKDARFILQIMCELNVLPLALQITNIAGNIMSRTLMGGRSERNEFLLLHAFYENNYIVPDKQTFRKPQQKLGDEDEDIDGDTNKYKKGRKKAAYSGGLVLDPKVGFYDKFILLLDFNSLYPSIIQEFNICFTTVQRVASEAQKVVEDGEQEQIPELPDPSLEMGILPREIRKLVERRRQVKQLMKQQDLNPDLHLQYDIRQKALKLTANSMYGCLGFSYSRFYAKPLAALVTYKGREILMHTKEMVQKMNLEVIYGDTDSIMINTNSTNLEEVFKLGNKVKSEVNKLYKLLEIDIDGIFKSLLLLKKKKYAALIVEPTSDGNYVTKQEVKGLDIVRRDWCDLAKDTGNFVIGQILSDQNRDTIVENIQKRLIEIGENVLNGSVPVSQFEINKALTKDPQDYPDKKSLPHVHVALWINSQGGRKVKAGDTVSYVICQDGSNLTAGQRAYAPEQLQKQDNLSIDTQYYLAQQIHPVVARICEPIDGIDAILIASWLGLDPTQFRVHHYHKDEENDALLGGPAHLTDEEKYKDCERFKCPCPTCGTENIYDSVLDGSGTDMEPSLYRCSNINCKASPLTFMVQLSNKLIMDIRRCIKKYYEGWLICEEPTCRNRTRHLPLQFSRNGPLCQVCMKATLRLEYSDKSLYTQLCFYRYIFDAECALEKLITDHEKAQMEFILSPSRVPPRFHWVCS
Protocol: (§1) Pols from mammals, a fish (cherry salmon), an insect (fruit fly) and a plant (cauliflower) were purified, and prokaryotic pols and other DNA metabolic enzymes, such as T7 RNA polymerase, T4 polynucleotide kinase and bovine deoxyribonuclease I, were purchased as described in our previous report. The activities of all pols and other DNA metabolic enzymes were measured as described in previous reports.
(§2) The components of the pol assay were poly(dA)/oligo(dT)18 and dTTP as the DNA template-primer and 2′-deoxyribonucleoside 5′-triphosphate (dNTP) substrate, respectively. VK2, VK3, and their synthesized derivatives (i.e., MK-3, MK-2 and MK-1) were dissolved in dimethyl sulfoxide (DMSO) at various concentrations and sonicated for 30 s. The sonicated samples (4 μL) were mixed with 16 μL of each pol enzyme (final amount, 0.05 units) in 50 mM Tris-HCl (pH 7.5) containing 1 mM dithiothreitol, 50% glycerol and 0.1 mM EDTA, and kept at 0 °C for 10 min. These inhibitor–enzyme mixtures (8 μL) were added to 16 μL of each standard enzyme reaction mixture (50 mM Tris-HCl [pH 7.5], 1 mM dithiothreitol, 1 mM MgCl2, 15% glycerol, 10 μM poly(dA)/oligo(dT)18 and 10 μM [^3H]-dTTP), and incubation was carried out at 37 °C for 60 min, except for Taq pol, which was incubated at 74 °C for 60 min. Activity without the inhibitor was considered to be 100%, and the activity remaining at each concentration of inhibitor was determined relative to this value. One unit of pol activity was defined as the amount of enzyme that catalyzed the incorporation of 1 nmol dNTP (dTTP) into the synthetic DNA template-primer (poly(dA)/oligo(dT)18, A/T = 2/1) in 60 min at 37 °C under normal reaction conditions for each enzyme (scintillation counts: approximately 1 pmol of incorporated radioactive nucleotides = 100 cpm).

Human DNA polymerase λ = target: T2, Human DNA polymerase λ (Homo sapiens, UniProt Q9UGP5); assay: DNA polymerase activity assay, human pol λ; type: biochemical; details: for Inhibitory effect on human pol λ activity: 50 μM of each compound, Figure 2
T2 construct: made in house
T2 sequence (Q9UGP5 1-575): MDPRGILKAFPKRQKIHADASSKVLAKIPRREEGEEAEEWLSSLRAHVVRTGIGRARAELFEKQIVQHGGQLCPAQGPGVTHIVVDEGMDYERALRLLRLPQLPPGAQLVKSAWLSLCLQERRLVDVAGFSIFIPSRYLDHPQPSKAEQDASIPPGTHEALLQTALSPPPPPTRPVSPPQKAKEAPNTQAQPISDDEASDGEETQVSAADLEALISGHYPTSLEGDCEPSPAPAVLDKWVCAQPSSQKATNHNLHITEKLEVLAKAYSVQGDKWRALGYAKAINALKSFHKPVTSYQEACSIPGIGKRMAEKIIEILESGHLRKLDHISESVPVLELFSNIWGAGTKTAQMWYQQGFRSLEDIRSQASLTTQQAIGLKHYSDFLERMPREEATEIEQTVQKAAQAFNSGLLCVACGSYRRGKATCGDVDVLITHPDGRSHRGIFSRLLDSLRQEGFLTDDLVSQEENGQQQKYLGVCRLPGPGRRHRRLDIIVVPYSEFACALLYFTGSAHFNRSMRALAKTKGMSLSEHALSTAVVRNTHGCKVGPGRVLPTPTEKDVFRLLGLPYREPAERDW
Protocol: as §1, §2

Inhibitory effect on human pol λ activity (Human DNA polymerase λ)	SMILES	Inhibitory effect on calf pol α activity (Calf DNA polymerase α)	IC50 (Calf DNA polymerase α; B-family pol, read-out: IC50 Value of MK-2, Calf DNA polymerase α)	IC50 (Human DNA polymerase λ; X-family pol, read-out: IC50 Value of MK-2, Human DNA polymerase λ)
inhibited the activity	CC(C)=CCC/C(C)=C/CC/C(C)=C/CC1=C(C)C(=O)c2ccccc2C1=O [MK-3]	inhibited the activity	–	–
inhibited the activity	CC(C)=CCC1=C(C)C(=O)c2ccccc2C1=O [MK-1]	inhibited the activity	–	–
had no effect on pol activity	CC(C)=CCC/C(C)=C/CC/C(C)=C/CC/C(C)=C/CC1=C(C)C(=O)c2ccccc2C1=O [MK-4, menaquinone 4, reference compound]	had no effect on pol activity	–	–

SMILES	Inhibitory effect on human pol λ activity (Human DNA polymerase λ)	Inhibitory effect on calf pol α activity (Calf DNA polymerase α)	IC50 (Calf DNA polymerase α; B-family pol, read-out: IC50 Value of MK-2, Calf DNA polymerase α)	IC50 (Human DNA polymerase λ; X-family pol, read-out: IC50 Value of MK-2, Human DNA polymerase λ)
CC(C)=CCC/C(C)=C/CC1=C(C)C(=O)c2ccccc2C1=O [MK-2]	inhibited the activity	inhibited the activity	27.6 ± 1.6 µM	24.6 ± 1.4 µM
